In ChEMBL document CHEMBL1759879, “A new quinoline derivative with cytotoxic activity from Streptomyces sp. neau50” (Bioorg Med Chem Lett, 2011):
≈ marks a conversion by molar mass, not a printed value. Calls of active or inactive are those of the source. No cut-off for these calls is given here.

Assays:
Candida albicans = test: Antimicrobial activity against Candida albicans at 10 uM by agar diffusion method; format: functional, organism-based
A549 = test: Cytotoxicity against human A549 cells after 72 hrs colorimetric assay; format: functional, cell-based; details: A549, 72 h
[1] = system: Staphylococcus epidermidis; test: Antimicrobial activity against Staphylococcus epidermidis at 10 uM by agar diffusion method; format: functional, organism-based

SMILES: COC(=O)c1cc(C)nc2c(CCC(C)(C)OC)cccc12
- Activity (Candida albicans): inactive
- IC50 (A549): 29.3 µg/mL (≈ 97.2 µM)
- Activity [1]: inactive
